Test results: US10517889B2, “Modulators of SMAD7 expression” (Ionis Pharmaceuticals, Inc., priority 2017, dated 2019)
Strand notation (5' to 3'): a small letter for the sugar, then the base; units joined by * are phosphorothioate-linked, units joined directly phosphodiester-linked; [ ] holds rarer units or linkages, { } end groups; capitals alone tell only the bases. k = constrained ethyl (cEt); [5mC] = 5-methylcytosine; d = 2'-deoxy (DNA)

test system: human SMAD7 mRNA; assay: Antisense inhibition of human SMAD7 mRNA expression in Hep3B cells by 3-10-3 cEt gapmers, 10,000 nM, electroporation (Example 2); format: cell-based; conditions: Hep3B cells, 10,000 nM antisense oligonucleotide, electroporation, approximately 24 hours, RT-PCR primer probe set RTS5062, relative to untreated control cells
Method in brief: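 Hep3B cells (20,000 per well) were electroporated with 10,000 nM 16-mer 3-10-3 cEt gapmer (phosphorothioate, 5-methylcytosine). After about 24 h, SMAD7 mRNA was quantified by qRT-PCR with primer probe set RTS5062, normalised to RIBOGREEN total RNA, and expressed as percent inhibition versus untreated cells.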

Substance	% Inhibition
798827 (kA*kG*kA*dG*dA*dG*dG*dG*d[5mC]*dT*d[5mC]*d[5mC]*dT*kG*kG*kA; antisense) [compound 798827]	21%
798897 (kG*kG*k[5mC]*dG*dG*dG*dT*dG*dT*dA*dG*d[5mC]*dA*k[5mC]*kT*kG; antisense) [compound 798897]	60%
799932 (antisense kT*k[5mC]*kA*dA*dG*dA*dG*dA*d[5mC]*dG*dG*dT*dG*kA*kG*k[5mC]) [compound 799932]	0%

same assay, conditions: Hep3B cells, electroporation with 10,000 nM antisense oligonucleotide, approximately 24 hours, RTS5062, percent inhibition of SMAD7 mRNA relative to untreated control cells

Substance	% Inhibition
799690 (antisense kA*kG*k[5mC]*dT*dA*d[5mC]*dA*dG*dT*d[5mC]*dA*dG*dG*k[5mC]*kT*kT) [compound 799690]	51%
799805 (k[5mC]*kG*kA*dG*dA*dA*dG*dA*dG*dT*dA*dA*dT*kT*k[5mC]*kA; antisense) [compound 799805]	1%
799277 (antisense k[5mC]*kT*k[5mC]*d[5mC]*dG*dG*dG*d[5mC]*dA*dG*d[5mC]*d[5mC]*dA*kG*kT*kT) [compound 799277]	21%

same assay, conditions: Hep3B cells, electroporation with 10,000 nM antisense oligonucleotide, approximately 24 hours, SMAD7 mRNA by RT-PCR (RTS5062), relative to untreated control cells

Substance	% Inhibition
772610 (kG*kG*k[5mC]*dA*dA*dA*dA*dG*d[5mC]*d[5mC]*dA*dT*dT*k[5mC]*k[5mC]*k[5mC]; antisense) [compound 772610]	34%
830082 (kG*kG*kT*dG*dT*dA*dT*dA*d[5mC]*d[5mC]*d[5mC]*dT*dG*k[5mC]*kA*k[5mC]; antisense) [compound 830082]	34%
799864 (k[5mC]*kT*k[5mC]*dA*dA*dG*d[5mC]*d[5mC]*d[5mC]*dA*d[5mC]*d[5mC]*d[5mC]*k[5mC]*kG*kG; antisense) [compound 799864]	42%
799922 (antisense kA*k[5mC]*kA*d[5mC]*dT*dA*dA*dT*dT*dA*dG*dT*dG*kA*k[5mC]*kT) [compound 799922]	15%
830059 (kG*kG*kG*d[5mC]*d[5mC]*dA*d[5mC]*d[5mC]*d[5mC]*dA*dG*dT*dG*kA*kG*k[5mC]; antisense) [compound 830059]	22%
830060 (kT*kA*k[5mC]*d[5mC]*dA*d[5mC]*d[5mC]*d[5mC]*d[5mC]*dT*dG*dT*dG*kA*kA*kG; antisense) [compound 830060]	8%
799452 (antisense kA*kA*kA*dA*dG*dA*dA*d[5mC]*dA*d[5mC]*dA*dG*d[5mC]*kA*k[5mC]*kT) [compound 799452]	44%
830069 (kA*kA*kG*dG*dT*dA*dA*dG*d[5mC]*d[5mC]*dA*dG*d[5mC]*kT*k[5mC]*k[5mC]; antisense) [compound 830069]	51%
830134 (antisense kA*kG*kT*dA*d[5mC]*dA*dA*dT*d[5mC]*dT*d[5mC]*d[5mC]*dT*kG*kG*kA) [compound 830134]	61%
799454 (antisense kT*kT*kA*dA*dA*dG*dA*d[5mC]*dA*dG*dA*dG*dG*kA*kG*k[5mC]) [compound 799454]	55%
799260 (antisense kT*kT*kG*d[5mC]*d[5mC]*d[5mC]*d[5mC]*dA*dA*dA*dA*d[5mC]*dT*k[5mC]*k[5mC]*kA) [compound 799260]	27%

same assay, conditions: Hep3B cells, electroporation with 10,000 nM antisense oligonucleotide, approximately 24 hours, primer probe set RTS5062, relative to untreated control cells

Substance	% inhibition of SMAD7 mRNA expression	% Inhibition
798676 (antisense k[5mC]*k[5mC]*kA*dT*dG*dA*dA*dG*dA*dA*dG*dT*d[5mC]*kG*kG*kG) [compound 798676]	21%	
799151 (antisense kA*kG*k[5mC]*d[5mC]*dT*dA*dG*dG*dA*dT*dG*dG*dT*kA*k[5mC]*k[5mC]) [compound 799151]	39%	
799141 (antisense kT*kT*kA*dT*dG*dA*d[5mC]*dG*dG*dA*d[5mC]*d[5mC]*dA*kA*kA*kT) [compound 799141]		47%
798959 (antisense k[5mC]*k[5mC]*k[5mC]*dA*dA*d[5mC]*dA*dA*dT*dT*d[5mC]*dT*dT*kT*kT*k[5mC]) [compound 798959]		36%
799220 (kA*kA*kT*dT*dT*dG*dG*d[5mC]*dA*dT*dT*dT*dG*kT*kT*kA; antisense) [compound 799220]		0%
799377 (antisense kT*kT*kG*d[5mC]*dA*dG*dG*dT*dG*dA*d[5mC]*dT*dG*kG*kA*kG) [compound 799377]	15%	
798727 (antisense kT*kG*kG*d[5mC]*dA*d[5mC]*d[5mC]*dT*d[5mC]*dG*d[5mC]*dA*d[5mC]*k[5mC]*kG*k[5mC]) [compound 798727]	51%	
799158 (antisense kT*kA*kT*dG*dA*dG*dT*dT*dG*dT*dA*dG*dA*kA*kG*kA) [compound 799158]		33%
799061 (antisense kT*kT*k[5mC]*dG*dG*d[5mC]*d[5mC]*dA*d[5mC]*dT*dA*dG*d[5mC]*kA*kG*kG) [compound 799061]		45%
799112 (antisense kG*kG*kG*dA*dG*d[5mC]*dA*dG*dG*d[5mC]*dA*dG*dT*kG*k[5mC]*kT) [compound 799112]	58%	
798710 (antisense k[5mC]*k[5mC]*k[5mC]*d[5mC]*dA*dT*dG*d[5mC]*dG*d[5mC]*dT*d[5mC]*dG*kG*k[5mC]*kT) [compound 798710]	54%	
798810 (kA*kA*kG*dT*dT*dG*dG*dG*dA*dA*dT*d[5mC]*dT*kG*kA*kA; antisense) [compound 798810]	0%	
798673 (antisense kG*kG*k[5mC]*d[5mC]*d[5mC]*dG*dG*dG*d[5mC]*dA*dG*dG*dA*kG*k[5mC]*kG) [compound 798673]	15%	
798685 (antisense kG*kA*kG*dG*d[5mC]*dG*dA*dG*dG*dA*dG*dA*dA*kA*kA*kG) [compound 798685]	58%	
799147 (antisense kG*kT*kA*d[5mC]*d[5mC]*dT*dT*dG*dG*dG*dT*dT*dA*kT*kG*kA) [compound 799147]	28%	
799114 (antisense k[5mC]*kA*kG*dG*dA*dT*dG*dG*dG*dA*dG*d[5mC]*dA*kG*kG*k[5mC]) [compound 799114]		35%

same assay, conditions: Hep3B cells, electroporation, 10,000 nM antisense oligonucleotide, approximately 24 hours, RTS5062, relative to untreated control cells

Substance	% inhibition of SMAD7 mRNA expression
799498 (antisense kT*k[5mC]*kA*dA*dG*dA*dA*d[5mC]*dT*d[5mC]*dT*d[5mC]*d[5mC]*kT*kA*kA) [compound 799498]	31%
799758 (antisense k[5mC]*kA*k[5mC]*d[5mC]*dG*dT*dT*dA*d[5mC]*dT*dG*dG*dA*k[5mC]*kA*k[5mC]) [compound 799758]	57%
799499 (antisense kT*k[5mC]*k[5mC]*dT*dT*dT*dA*dG*dT*dG*dG*d[5mC]*d[5mC]*kT*kA*k[5mC]) [compound 799499]	54%
799713 (antisense k[5mC]*kA*k[5mC]*dA*dA*dT*d[5mC]*dA*d[5mC]*dT*dG*dT*dT*k[5mC]*k[5mC]*kT) [compound 799713]	0%
799736 (antisense kT*kT*k[5mC]*dT*dA*d[5mC]*dA*d[5mC]*d[5mC]*dT*dT*dT*dT*kA*kA*kG) [compound 799736]	56%
799658 (antisense kA*kA*k[5mC]*dT*dA*d[5mC]*dA*dA*dG*dT*dG*dG*dT*kT*kG*k[5mC]) [compound 799658]	22%

same assay, conditions: SMAD7 mRNA, Hep3B cells, 10,000 nM antisense oligonucleotide, electroporation, approximately 24 hours, primer probe set RTS5062, relative to untreated control cells

Substance	% Inhibition
829770 (antisense k[5mC]*kA*kG*dT*d[5mC]*d[5mC]*dA*dG*dG*d[5mC]*dG*dG*d[5mC]*k[5mC]*kG*kG) [compound 829770]	42%
790529 (kA*kG*k[5mC]*dT*dG*dA*dT*d[5mC]*dT*dG*d[5mC]*dA*d[5mC]*kG*kG*kT; antisense) [compound 790529]	65%
800787 (antisense k[5mC]*kA*kG*dT*dA*dG*dA*dG*d[5mC]*d[5mC]*dT*d[5mC]*d[5mC]*k[5mC]*k[5mC]*kA) [compound 800787]	38%
829748 (antisense k[5mC]*kT*k[5mC]*dG*d[5mC]*d[5mC]*dG*d[5mC]*d[5mC]*dG*dG*dG*d[5mC]*kG*k[5mC]*kA) [compound 829748]	43%

same assay, conditions: SMAD7 mRNA, Hep3B cells, electroporation with 10,000 nM antisense oligonucleotide, approximately 24 hours, primer probe set RTS5062, relative to untreated control cells

Substance	% Inhibition
829949 (k[5mC]*k[5mC]*kG*dG*dG*d[5mC]*dA*dG*d[5mC]*d[5mC]*dA*dG*dT*kT*kA*kA; antisense) [compound 829949]	19%
829887 (antisense k[5mC]*kG*kT*dG*dG*dT*d[5mC]*dA*dT*dT*dG*dG*dG*k[5mC]*k[5mC]*kG) [compound 829887]	47%
829881 (antisense k[5mC]*kG*kT*d[5mC]*d[5mC]*dT*dG*dG*dA*dG*dT*d[5mC]*d[5mC]*kG*kG*kG) [compound 829881]	39%
829944 (k[5mC]*k[5mC]*kA*dG*dT*dT*dA*dA*dT*d[5mC]*dA*dT*dT*kA*k[5mC]*kT; antisense) [compound 829944]	23%
829906 (antisense k[5mC]*k[5mC]*kG*dG*d[5mC]*dT*dG*dT*dT*dG*dA*dA*dG*kA*kT*kG) [compound 829906]	0%
829810 (kA*kT*k[5mC]*dG*dG*dG*dT*dA*dT*d[5mC]*dT*dG*dG*kA*kG*kT; antisense) [compound 829810]	29%
829985 (kG*kA*kG*dG*d[5mC]*dG*dG*dT*dG*dA*dT*dT*dG*k[5mC]*k[5mC]*kT; antisense) [compound 829985]	16%
